In patent US7569582B2, “Aminotropane derivatives, preparation thereof and therapeutic use thereof” (Sanofi-Aventis, priority 2004, dated 2009) one finds melting point, EC50 and IC50 data, which are given here for 8 compounds.

Structures can show the parent of a compound that is named as a salt.

For data set [1], the target named is T1, human MC3 receptor (Homo sapiens, UniProt P41968).
T1 construct: expressed in transfected cells; host or cells: CHO(dhfr-)
The data set can be described thus: Functional agonist assay: cAMP formation in CHO(dhfr-) cells expressing the human MC3 receptor. Particulars: 1 hour incubation, 50% of the maximum stimulation obtained with the compound, read-out: EC50 with respect to the MC3 receptor. In kind it is cell-based. Here is the method: (§1) A functional assay is used to differentiate between the agonist activity and the antagonist activity. For this, the formation of cyclic adenosine monophosphate (cAMP) generated by activation of the MC3 receptor or of the MC4 receptor is assayed.
CHO(dhfr-) cells expressing the human MC3 receptor are seeded into MEM Eagle culture medium (Sigma) containing 10% of dialysed calf serum, 1% L-glutamine, 1% sodium pyruvate, 20 mg/500 ml L-proline, 0.3 mg/ml Geneticin and 0.5% PenStrep, these products being provided by Gibco/BRI, except for the dialysed calf serum (Cambrex) and the L-proline (Sigma).
(§2) The compounds to be tested (diluted in 10% DMSO), in an amount of 10 μl at a concentration of 10 times the final concentration, are added to the plates of cells (final volume=100 μl/well). After incubation for 1 hour (37° C., 5% CO2), the amount of cAMP is assayed using Tropix kits (Appelera) according to the supplier's documentation. The intrinsic activity of the compounds is calculated by comparing the stimulation of cAMP by these compounds to the stimulation induced by 30 nM of NDP[…]MSH (maximum of 100%). The EC50 value for the compounds corresponds to the concentration which produces 50% of the maximum stimulation obtained with this compound.

Data set [2] deals with T2, human MC4 receptor (Homo sapiens, UniProt P32245).
T2 construct: host or cells: CHO-K1
T2 sequence (P32245 whole entry): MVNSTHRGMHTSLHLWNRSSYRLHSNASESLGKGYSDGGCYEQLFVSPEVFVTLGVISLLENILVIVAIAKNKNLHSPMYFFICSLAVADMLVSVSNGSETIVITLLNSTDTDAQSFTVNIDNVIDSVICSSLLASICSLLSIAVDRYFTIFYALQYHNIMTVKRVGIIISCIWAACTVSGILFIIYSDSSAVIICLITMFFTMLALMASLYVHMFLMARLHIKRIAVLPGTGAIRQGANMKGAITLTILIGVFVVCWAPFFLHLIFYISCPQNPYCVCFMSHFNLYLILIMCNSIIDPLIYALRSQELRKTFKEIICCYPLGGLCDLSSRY
Put plainly: Affinity assay: displacement of [125I]-[Nle4,D-Phe7]-α-MSH binding to membranes of CHO-K1 cells expressing hMC4 (SPA). The following applies: displacement of specific radioligand binding by 50%; radioligand 100 pM; read-out: IC50 with respect to the MC4 receptor. Here is the method:
This affinity assay is carried out by measuring the binding of [^125I]-[Nle^4-D-Phe^7]-[…]-MSH to cell membranes. The displacement of this radioligand is used to identify inhibitors of the specific binding to recombinant melanocortin receptors.
For this assay, membranes prepared from CHO-K1 cells expressing the human MC4 receptor at high density (Euroscreen) or membranes, that were purchased (Perkin Elmer Life Sciences, Receptor Biology), of HEK-293 cells expressing hMC3 receptors were used. CHO-K1 cells transfected with the hMC4 receptor gene (Euroscreen) are seeded into DMEM/Nutrient Mix F12 culture medium containing 10% foetal calf serum (Biowhittaker), 1% sodium pyruvate, 1% L-glutamine, 1% non-essential amino acids, 0.4 mg/ml geneticin (G418) and 0.5% PenStrep, these products being provided by Gibco/BR1, except the calf serum. At 80% confluency, the cells are scraped off and the cell pellets are frozen at −80° C.
A tube of cells (approximately 70×10^6 cells) is thawed on ice and resuspended in 10 ml of binding buffer [25 mM HEPES, pH 7.0, 1 mM MgCl2, 1.5 mM CaCl2, 100 mM NaCl, 1 mM 1,10-phenanthroline and 1 tablet of Complete^TR (protease inhibitor from Roche) in 50 ml of buffer] using a polytron for 20 seconds. […] The nonspecific binding is defined by NDP-[…]MSH at 10^−7 M. The total binding is measured by the number of counts per minute in the presence of the radioligand alone. […]

In data set [3] the target is T2, human MC4 receptor. Put plainly: Functional agonist assay: cAMP formation in CHO-K1 cells expressing the human MC4 receptor. Particulars: 1 hour incubation, 50% of the maximum stimulation obtained with the compound, read-out: EC50 with respect to the MC4 receptor. It counts as cell-based. As for the experimental part:
as §1
CHO-K1 cells, expressing the human MC4 receptor at a moderate density (Euroscreen), are seeded into DMEM/Nutrient Mix F12 culture medium (Gibco/BR1) containing 10% of foetal calf serum, 0.5% sodium pyruvate, 1% L-glutamine, 1% non-essential amino acids, 200 mg/l hygromycin B and 0.5% PenStrep, these products being provided by Gibco/BR1, except the calf serum (Biowhittaker) and hygromycin B (Sigma).
as §2

T1 sequence (P41968 whole entry): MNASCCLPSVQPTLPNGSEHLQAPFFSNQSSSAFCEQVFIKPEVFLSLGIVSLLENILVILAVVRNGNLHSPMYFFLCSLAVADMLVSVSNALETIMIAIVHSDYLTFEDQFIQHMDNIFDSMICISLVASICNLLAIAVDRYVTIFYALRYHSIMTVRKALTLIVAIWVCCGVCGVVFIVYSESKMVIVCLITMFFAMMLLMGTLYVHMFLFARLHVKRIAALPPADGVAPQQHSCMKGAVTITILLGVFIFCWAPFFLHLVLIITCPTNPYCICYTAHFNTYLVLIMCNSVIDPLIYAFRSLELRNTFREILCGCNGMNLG

Regarding `CCN(CC)C(=O)N(C1CCCCC1)C1CC2CCC(C1)N2C(=O)[C@@H](Cc1ccc(Cl)cc1)NC1CCNC1` (stereo partly shown) (as salt: HCl), the melting point came out at 220 °C.

In turn, `CCN(CC)C(=O)N(C1CCCCC1)C1CC2CCC(C1)N2C(=O)[C@@H](Cc1ccc(Cl)cc1)NCCN` (stereo partly shown) (as salt: HCl) had a melting point of 105 °C.

As for `CCN(CC)C(=O)N(C1CCCCC1)C1CC2CCC(C1)N2C(=O)[C@@H](Cc1ccc(Cl)cc1)NCCCN` (stereo partly shown) (as salt: HCl), the melting point came to 215 °C.

Regarding `CCN(CC)C(=O)N(C1CCCCC1)C1CC2CCC(C1)N2C(=O)[C@@H](Cc1ccc(Cl)cc1)NC(C)/C=N/O` (stereo partly shown) (as salt: HCl), the melting point is 132 °C.

Take `CCN(CC)C(=O)N(C1CCCCC1)C1CC2CCC(C1)N2C(=O)[C@@H](Cc1ccc(Cl)cc1)NC1CNC1` (stereo partly shown) (as salt: HCl): the melting point was 170 °C.

For `CCN(CC)C(=O)N(C1CCCCC1)C1CC2CCC(C1)N2C(=O)[C@@H](Cc1ccc(Cl)cc1)NC1CCSC1` (stereo partly shown) (as salt: HCl), the melting point is > 200 °C.

Compound `CCN(CC)C(=O)N(C1CCCCC1)C1CC2CCC(C1)N2C(=O)[C@@H](Cc1ccc(Cl)cc1)NC1CCC(N)CC1` (stereo partly drawn) (as salt: HCl) [compound 3, N-{8-[N-(4-aminocyclohexyl)-4-chloro-D-phenylalanyl]-8-azabicyclo[3.2.1]oct-3-yl}-N-cyclohexyl-N′,N′-diethylurea] returned a melting point of 208 °C.

In the case of `CCN(CC)C(=O)N(C1CCCCC1)C1CC2CCC(C1)N2C(=O)[C@@H](Cc1ccc(Cl)cc1)NC1CCC(N)CC1` (stereo partly drawn) [compound 3, N-{8-[N-(4-aminocyclohexyl)-4-chloro-D-phenylalanyl]-8-azabicyclo[3.2.1]oct-3-yl}-N-cyclohexyl-N′,N′-diethylurea], the half-maximal effective concentration (EC50) in data set [1] is 330 nM; in data set [3] it was 28 nM. Besides, in data set [2], the IC50 was 280 nM.
